Results published in the supplement of paper PMC10307832.

What was measured:
Test in all cases: relative viability (nuclei count vs DMSO), 5 days (fraction); higher = more cells survive
Bromopyruvate = compound: C(C(=O)C(=O)O)Br [Bromopyruvate]
Outline: (§1)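 Five library-drug doses, separated by factors of √10, were pinned into 1536-well plates holding lung cancer cell lines after an overnight stay at 37 °C. Cells were fixed, permeabilised and Hoechst-stained in one step after 5 days without medium change, then imaged at 4×. Viability compares treated-well with vehicle-well nuclei, counted in MetaXpress, as a median across plates. Passing plates had control CV below 25% and at least one doubling.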

Bicalutamide = compound: CC(O)(CS(=O)(=O)c1ccc(F)cc1)C(=O)Nc1ccc(C#N)c(C(F)(F)F)c1 [Bicalutamide]
Outline: as §1

[1] = compound: C(C(=O)C(=O)O)Br [Bromopyruvate] + CC(=O)Nc1cccc(-n2c(=O)n(C3CC3)c(=O)c3c(Nc4ccc(I)cc4F)n(C)c(=O)c(C)c32)c1 [Trametinib] (partner 0.02 µM)
Outline: (§2)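 Lung cancer cell lines, seeded in 1536-well plates, were treated the following day by pin tool with a single drug or with five library-drug doses (not always all listed) in √10 steps on top of a fixed anchor-drug dose. Cells were fixed and nuclei stained in one step after 5 days, and nuclei were counted. Relative viability is the nuclei count for treated wells divided by that for vehicle wells, reported as medians of duplicate plates.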

[2] = compound: CC(O)(CS(=O)(=O)c1ccc(F)cc1)C(=O)Nc1ccc(C#N)c(C(F)(F)F)c1 [Bicalutamide] + CC1(C)CCC(c2ccc(Cl)cc2)=C(CN2CCN(c3ccc(C(=O)NS(=O)(=O)c4ccc(N[C@H](CCN5CCOCC5)CSc5ccccc5)c(S(=O)(=O)C(F)(F)F)c4)cc3)CC2)C1 [Navitoclax] (partner 0.5 µM)
Outline: as §2

Cell Line	relative viability (Bromopyruvate; 1 µM)	relative viability (Bromopyruvate; 3.162 µM)	relative viability (Bromopyruvate; 10 µM)	relative viability (Bromopyruvate; 31.62 µM)	relative viability (Bromopyruvate; 100 µM)	relative viability (Bicalutamide; 0.08 µM)	relative viability (Bicalutamide; 0.253 µM)	relative viability (Bicalutamide; 0.8 µM)	relative viability (Bicalutamide; 2.53 µM)	relative viability ([1]; first compound 1 µM)	relative viability ([1]; first compound 3.162 µM)	relative viability ([1]; first compound 10 µM)	relative viability ([1]; first compound 31.62 µM)	relative viability ([1]; first compound 100 µM)	relative viability ([2]; first compound 0.08 µM)	relative viability ([2]; first compound 0.253 µM)	relative viability ([2]; first compound 0.8 µM)	relative viability ([2]; first compound 2.53 µM)
NCI-H1975	1.02	0.962	1	0.939	0.906	0.935	0.942	0.998	0.775	0.361	0.334	0.329	0.345	0.365	0.951	1.05	1.23	1.12
NCI-H1944	1.02	0.995	0.967	0.904	1	0.993	0.873	1.06	0.978	0.428	0.376	0.409	0.435	0.398	1.04	1.08	1.08	1.03
LU99A	0.852	0.913	0.977	0.967	1.03	0.926	0.885	1.22	0.755	0.521	0.531	0.621	0.564	0.661	0.756	0.779	1.01	0.742
NCI-H2405	1.06	0.968	0.984	0.873	1.05	1.07	0.968	1.18	0.926	0.735	0.739	0.764	–	0.684	0.948	0.816	0.987	0.925
NCI-H2023	0.893	0.962	1.15	0.958	0.959	1.01	0.903	1.17	0.907	0.55	0.483	0.517	0.562	0.482	1.08	1.04	1.06	0.945
HCC-15	1.03	1.06	1.08	0.981	0.957	1.02	0.973	1.15	1	0.349	0.385	0.386	0.369	0.393	0.757	0.685	0.761	0.712
HCC-44	1.02	0.986	0.992	1.01	0.985	1.03	0.998	0.981	1.01	1.08	1.02	1.04	1.11	1	0.921	0.949	0.924	0.982
COR-L23	1.02	0.913	1.19	1.03	0.723	1.03	1.01	1.18	0.877	0.585	0.652	0.651	0.582	0.544	1.17	1.02	1.11	0.898
HCC-78	1.08	0.971	1.02	0.94	0.993	0.941	0.991	1.22	0.985	0.746	0.681	0.955	0.71	0.72	0.825	0.862	0.893	0.687
NCI-H838	0.994	0.972	1.05	0.995	0.894	0.95	0.908	1.05	0.76	0.521	0.529	0.68	0.539	0.516	1.1	1.07	1.25	0.854
NCI-H2126	1.03	0.995	1.05	0.958	1.03	0.967	0.949	1.01	0.95	0.547	0.579	0.559	0.591	0.57	0.929	0.806	0.873	0.847
BEN	1.07	0.949	0.971	0.951	0.934	1.01	0.876	1.34	1.03	1.03	0.983	1.18	0.97	1.2	0.0525	0.0535	0.0851	0.0653
EKVX	0.988	0.973	1.06	1.01	0.969	1.02	0.984	1.09	0.914	0.368	0.381	0.334	0.448	0.378	1.02	1.01	1.15	0.894
LXF-289	1.03	1.01	1.04	1.03	1.02	0.998	0.958	0.984	0.979	0.671	0.653	0.627	0.693	0.67	0.951	0.952	0.999	0.931
NCI-H1650	0.998	0.835	0.959	0.938	0.865	0.967	0.935	1.1	0.842	0.548	0.482	0.643	0.572	0.515	1.31	1.19	1.16	1.22
NCI-H2087	0.947	1.07	1.09	1.04	0.974	1.09	1.06	1.25	1.07	0.224	0.189	0.156	0.175	0.185	1.15	1.09	1.1	0.974
NCI-H1793	1.03	1.09	1.12	0.959	1.08	0.823	0.736	1.02	0.809	0.469	0.496	0.503	0.485	0.49	0.516	0.353	0.479	0.512
